Measurements published in the supplement of paper PMC10307832.

Assays:
Test in all cases: relative viability (nuclei count vs DMSO), 5 days (fraction); higher = more cells survive
[1] = compound: CC(O)(CS(=O)(=O)c1ccc(F)cc1)C(=O)Nc1ccc(C#N)c(C(F)(F)F)c1 [Bicalutamide] + CC1(C)CCC(c2ccc(Cl)cc2)=C(CN2CCN(c3ccc(C(=O)NS(=O)(=O)c4ccc(N[C@H](CCN5CCOCC5)CSc5ccccc5)c(S(=O)(=O)C(F)(F)F)c4)cc3)CC2)C1 [Navitoclax] (partner 0.5 µM)
Procedure, shortened: (§1)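 One day after seeding in 1536-well plates, lung cancer cell lines were dosed by pin tool. Dosing was either single-drug or a fixed anchor-drug dose plus five library-drug doses (not always all listed) in √10 steps. After 5 days, nuclei were stained in one fix-and-stain step and counted on 4× images, and relative viability is the nuclei count of treated wells over that of vehicle wells, given as the median of duplicate plates.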

[2] = compound: CC(O)(CS(=O)(=O)c1ccc(F)cc1)C(=O)Nc1ccc(C#N)c(C(F)(F)F)c1 [Bicalutamide] + CC(=O)c1c(C)c2cnc(Nc3ccc(N4CCNCC4)cn3)nc2n(C2CCCC2)c1=O [Palbociclib] (partner 0.5 µM)
Procedure, shortened: as §1

[3] = compound: C(C(=O)C(=O)O)Br [Bromopyruvate] + Cc1cc(Nc2cc(N3CCN(C)CC3)nc(Sc3ccc(NC(=O)C4CC4)cc3)n2)n[nH]1 [Tozasertib] (partner 0.1 µM)
Procedure, shortened: as §1

[4] = compound: CC(O)(CS(=O)(=O)c1ccc(F)cc1)C(=O)Nc1ccc(C#N)c(C(F)(F)F)c1 [Bicalutamide] + C[C@]1(O)C[C@@H](c2nc(-c3ccc4ccc(-c5ccccc5)nc4c3)c3c(N)nccn32)C1 [Linsitinib] (partner 1 µM)
Procedure, shortened: as §1

| Cell Line | relative viability ([1]; first compound 0.08 µM) | relative viability ([1]; first compound 0.253 µM) | relative viability ([1]; first compound 0.8 µM) | relative viability ([1]; first compound 2.53 µM) | relative viability ([2]; first compound 0.08 µM) | relative viability ([2]; first compound 0.253 µM) | relative viability ([2]; first compound 0.8 µM) | relative viability ([2]; first compound 2.53 µM) | relative viability ([3]; first compound 1 µM) | relative viability ([3]; first compound 3.162 µM) | relative viability ([3]; first compound 10 µM) | relative viability ([3]; first compound 31.62 µM) | relative viability ([3]; first compound 100 µM) | relative viability ([4]; first compound 0.08 µM) | relative viability ([4]; first compound 0.253 µM) | relative viability ([4]; first compound 0.8 µM) | relative viability ([4]; first compound 2.53 µM) |
| --- | --- | --- | --- | --- | --- | --- | --- | --- | --- | --- | --- | --- | --- | --- | --- | --- | --- |
| NCI-H838 | 1.1 | 1.07 | 1.25 | 0.854 | 0.225 | 0.195 | 0.256 | 0.179 | 0.268 | 0.291 | 0.305 | 0.242 | 0.293 | 0.962 | 1 | 1 | 0.827 |
| H3255 | 0.524 | 0.489 | 0.631 | 0.4 | 0.35 | 0.324 | 0.308 | 0.302 | 0.613 | 0.771 | 0.686 | 0.702 | 0.829 | 0.949 | 0.848 | 1.08 | 0.867 |
| SK-MES-1 | 1.13 | 1.19 | 1.26 | 1.17 | 0.319 | 0.3 | 0.3 | 0.281 | 0.877 | 0.926 | 0.948 | 0.98 | 0.9 | 1.14 | 1.07 | 1.07 | 1.04 |
| NCI-H1437 | 1.1 | 1.17 | 1.14 | 1.11 | 0.305 | 0.283 | 0.342 | 0.343 | 0.384 | 0.414 | 0.447 | 0.397 | 0.451 | 1.01 | 1 | 1.28 | 0.965 |
| LU99A | 0.756 | 0.779 | 1.01 | 0.742 | 0.386 | 0.36 | 0.531 | 0.393 | 0.344 | 0.253 | 0.285 | 0.233 | 0.325 | 0.512 | 0.486 | 0.566 | 0.47 |
| HCC-827 | 1.04 | 0.971 | 1.02 | 1.02 | 0.499 | 0.389 | 0.496 | 0.476 | 0.375 | 0.391 | 0.386 | 0.421 | 0.435 | 0.945 | 0.896 | 0.993 | 0.964 |
| LK-2 | 0.844 | 0.798 | 1.18 | 0.841 | 0.665 | 0.511 | 0.783 | 0.63 | 0.171 | 0.169 | 0.174 | 0.179 | 0.177 | 0.715 | 0.349 | 0.64 | 0.657 |
| HCC-366 | 1.08 | 1.03 | 1.17 | 1.02 | 0.368 | 0.383 | 0.583 | 0.359 | 0.136 | 0.142 | 0.0931 | 0.12 | 0.0884 | 0.659 | 0.541 | 0.905 | 0.624 |
